Test results reported in article PMC12284294 (iScience, 2025).
Read-outs that look alike come from different tables or passages of the source.

Legend:
FPR1 = target: T1, FPR1 (Homo sapiens, UniProt P21462); format: cell-based
T1 construct: expressed in transfected cells; host or cells: HEK293T
T1 sequence (P21462 1-350): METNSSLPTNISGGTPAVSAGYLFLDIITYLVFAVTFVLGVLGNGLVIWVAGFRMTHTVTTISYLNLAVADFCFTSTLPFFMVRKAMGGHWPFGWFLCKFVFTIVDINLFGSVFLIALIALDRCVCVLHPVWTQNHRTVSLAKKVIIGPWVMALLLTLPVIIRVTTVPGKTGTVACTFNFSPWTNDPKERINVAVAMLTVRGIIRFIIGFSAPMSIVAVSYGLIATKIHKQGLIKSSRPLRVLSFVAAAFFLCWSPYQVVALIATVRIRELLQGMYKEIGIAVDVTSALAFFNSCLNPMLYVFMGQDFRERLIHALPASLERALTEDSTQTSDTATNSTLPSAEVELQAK

[1] = tested on: human polymorphonuclear granulocytes (PMN; neutrophils); format: cell-based
[2] = SARS-CoV-2 omicron B.1.1.529 spike pool peptides, 10 µM, PMN, n=6

Sequence | non-activators of FPR1 and PMNs: FPR1 (FPR1) | non-activators of FPR1 and PMNs: PMNs [1, 2] | significant FPR1 activators (group of the spike peptide pool screening) (FPR1) | significant PMN activators (group of the spike peptide pool screening) [1, 2] | non-activators of FPR1 and PMNs: PMNs [1]
AGFNCYFPLKSYSFR | non-activators of FPR1 and PMNs | non-activators of FPR1 and PMNs | – | – | –
AGICASYQTQTKSHR | non-activators of FPR1 and PMNs | non-activators of FPR1 and PMNs | – | – | –
AISSVLNDIFSRLDK | non-activators of FPR1 and PMNs | non-activators of FPR1 and PMNs | – | – | –
ALGKLQDVVNHNAQA | non-activators of FPR1 and PMNs | non-activators of FPR1 and PMNs | – | – | –
APFFTFKCYGVSPTK | non-activators of FPR1 and PMNs | non-activators of FPR1 and PMNs | – | – | –
AQALNTLVKQLSSKF | non-activators of FPR1 and PMNs | non-activators of FPR1 and PMNs | – | – | –
AQKFKGLTVLPPLLT | – | – | significant FPR1 activators | – | –
ASYQTQTKSHRRARS | non-activators of FPR1 and PMNs | non-activators of FPR1 and PMNs | – | – | –
CEFQFCNDPFLDHKN | non-activators of FPR1 and PMNs | non-activators of FPR1 and PMNs | – | – | –
CNGVAGFNCYFPLKS | non-activators of FPR1 and PMNs | non-activators of FPR1 and PMNs | – | – | –
CPFDEVFNATRFASV | non-activators of FPR1 and PMNs | non-activators of FPR1 and PMNs | – | – | –
CTQLKRALTGIAVEQ | non-activators of FPR1 and PMNs | non-activators of FPR1 and PMNs | – | – | –
CVIAWNSNKLDSKVS | non-activators of FPR1 and PMNs | non-activators of FPR1 and PMNs | – | – | –
CYFPLKSYSFRPTYG | non-activators of FPR1 and PMNs | non-activators of FPR1 and PMNs | – | – | –
DFTGCVIAWNSNKLD | non-activators of FPR1 and PMNs | non-activators of FPR1 and PMNs | – | – | –
DLFLPFFSNVTWFHV | – | – | significant FPR1 activators | significant PMN activators | –
DLICAQKFKGLTVLP | – | – | – | significant PMN activators | –
DYSVLYNLAPFFTFK | – | – | significant FPR1 activators | significant PMN activators | –
FCNDPFLDHKNNKSW | non-activators of FPR1 and PMNs | non-activators of FPR1 and PMNs | – | – | –
FERDISTEIYQAGNK | non-activators of FPR1 and PMNs | non-activators of FPR1 and PMNs | – | – | –
FHVISGTNGTKRFDN | non-activators of FPR1 and PMNs | non-activators of FPR1 and PMNs | – | – | –
GAEYVNNSYECDIPI | non-activators of FPR1 and PMNs | non-activators of FPR1 and PMNs | – | – | –
GDEVRQIAPGQTGNI | non-activators of FPR1 and PMNs | non-activators of FPR1 and PMNs | – | – | –
GHQPYRVVVLSFELL | – | – | significant FPR1 activators | significant PMN activators | –
GNIADYNYKLPDDFT | non-activators of FPR1 and PMNs | non-activators of FPR1 and PMNs | – | – | –

Sequence | non-activators of FPR1 and PMNs: FPR1 (FPR1) | non-activators of FPR1 and PMNs: PMNs [1, 2] | significant FPR1 activators (group of the spike peptide pool screening) (FPR1) | significant PMN activators (group of the spike peptide pool screening) [1, 2] | non-activators of FPR1 and PMNs: PMNs [1]
GNKPCNGVAGFNCYF | non-activators of FPR1 and PMNs | non-activators of FPR1 and PMNs | – | – | –
IAARDLICAQKFKGL | – | – | – | significant PMN activators | –
IEKSNIIRGWIFGTT | non-activators of FPR1 and PMNs | non-activators of FPR1 and PMNs | – | – | –
IFSRLDKVEAEVQID | non-activators of FPR1 and PMNs | – | – | – | non-activators of FPR1 and PMNs
IIVREPEDLPQGFSA | non-activators of FPR1 and PMNs | non-activators of FPR1 and PMNs | – | – | –
ISTEIYQAGNKPCNG | non-activators of FPR1 and PMNs | non-activators of FPR1 and PMNs | – | – | –
IYKTPPIKYFGGFNF | – | – | – | significant PMN activators | –
IYQAGNKPCNGVAGF | non-activators of FPR1 and PMNs | non-activators of FPR1 and PMNs | – | – | –
KGLTVLPPLLTDEMI | – | – | significant FPR1 activators | – | –
KHTPIIVREPEDLPQ | non-activators of FPR1 and PMNs | non-activators of FPR1 and PMNs | – | – | –
KIYSKHTPIIVREPE | non-activators of FPR1 and PMNs | non-activators of FPR1 and PMNs | – | – | –
KLDSKVSGNYNYLYR | non-activators of FPR1 and PMNs | non-activators of FPR1 and PMNs | – | – | –
KQLSSKFGAISSVLN | non-activators of FPR1 and PMNs | non-activators of FPR1 and PMNs | – | – | –
KRALTGIAVEQDKNT | non-activators of FPR1 and PMNs | non-activators of FPR1 and PMNs | – | – | –
LKSYSFRPTYGVGHQ | non-activators of FPR1 and PMNs | non-activators of FPR1 and PMNs | – | – | –
LLLQYGSFCTQLKRA | non-activators of FPR1 and PMNs | non-activators of FPR1 and PMNs | – | – | –
LQDVVNHNAQALNTL | non-activators of FPR1 and PMNs | non-activators of FPR1 and PMNs | – | – | –
LYNLAPFFTFKCYGV | – | – | significant FPR1 activators | significant PMN activators | –
NCVADYSVLYNLAPF | non-activators of FPR1 and PMNs | non-activators of FPR1 and PMNs | – | – | –
NDGVYFASIEKSNII | non-activators of FPR1 and PMNs | non-activators of FPR1 and PMNs | – | – | –
NGLKGTGVLTESNKK | non-activators of FPR1 and PMNs | non-activators of FPR1 and PMNs | – | – | –
NKCVNFNFNGLKGTG | non-activators of FPR1 and PMNs | non-activators of FPR1 and PMNs | – | – | –
NTLVKQLSSKFGAIS | non-activators of FPR1 and PMNs | non-activators of FPR1 and PMNs | – | – | –
NVTWFHVISGTNGTK | – | – | significant FPR1 activators | significant PMN activators | –
PFFSNVTWFHVISGT | – | – | significant FPR1 activators | significant PMN activators | –
